Experimental data from PubChem BioAssay (NCI).
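In this assay, cells in 96-well plates receive the compound at five concentrations for 48 hours. Endpoints are linearly interpolated between the surrounding concentrations. Abbreviation: GI50, concentration required for 50% inhibition of growth. TGI: total growth inhibition.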

Experiments:
Experiment in all cases: NCI-60 cell line screen, 48 h
UACC-62 melanoma = test system: UACC-62 melanoma
SK-OV-3 ovarian = test system: SK-OV-3 ovarian
MDA-MB-435 = test system: MDA-MB-435
SF-295 CNS = test system: SF-295 CNS
K-562 leukemia = test system: K-562 leukemia
OVCAR-3 ovarian = test system: OVCAR-3 ovarian
COLO 205 colon = test system: COLO 205 colon
SK-MEL-2 melanoma = test system: SK-MEL-2 melanoma
HS 578T breast = test system: HS 578T breast
RPMI-8226 leukemia = test system: RPMI-8226 leukemia

Row | SMILES | GI50 (UACC-62 melanoma) | TGI (UACC-62 melanoma) | GI50 (SK-OV-3 ovarian) | TGI (SK-OV-3 ovarian) | GI50 (MDA-MB-435) | TGI (MDA-MB-435) | GI50 (SF-295 CNS) | TGI (SF-295 CNS) | GI50 (K-562 leukemia) | TGI (K-562 leukemia) | GI50 (OVCAR-3 ovarian) | TGI (OVCAR-3 ovarian) | GI50 (COLO 205 colon) | TGI (COLO 205 colon) | GI50 (SK-MEL-2 melanoma) | TGI (SK-MEL-2 melanoma) | GI50 (HS 578T breast) | TGI (HS 578T breast) | GI50 (RPMI-8226 leukemia) | TGI (RPMI-8226 leukemia)
1 | O=C1CC(c2ccsc2)c2snc(-c3ccc(Cl)cc3)c2N1 (stereo not given) | 0.859 µM | > 100 µM | 2.17 µM | 12 µM | 0.26 µM | 0.977 µM | 1.87 µM | 19.7 µM | 0.356 µM | > 100 µM | 0.694 µM | 4.78 µM | 0.527 µM | 2.57 µM | 3.93 µM | > 100 µM | 2.59 µM | > 100 µM | 0.6 µM | 5.44 µM
2 | C[C@@H](Oc1cc(-n2cnc3ccc(OCC4CCN(C)CC4)cc32)sc1C(N)=O)c1ccccc1Cl | 0.0957 µM | 4.07 µM | 0.101 µM | 2.93 µM | 0.0126 µM | 0.0643 µM | 0.0853 µM | 3.31 µM | 0.0437 µM | 3.34 µM | 0.0577 µM | 2.97 µM | 0.0165 µM | 0.631 µM | 0.0559 µM | 4.13 µM | 0.0759 µM | 0.502 µM | 0.094 µM | 4.61 µM
3 | COc1cc2cnc(-c3ccccc3)cc2cc1OC | – | 23.4 µM | – | > 100 µM | – | 67.3 µM | – | 45.1 µM | – | 78.3 µM | – | 85.6 µM | – | 58.5 µM | – | 54.6 µM | – | 53.8 µM | – | 36 µM
4 | CNC(=O)c1cc(Oc2ccc3nc(N[C@@H]4CCCC[C@H]4O)sc3c2)ccn1 | 49.9 µM | > 100 µM | > 100 µM | > 100 µM | 32.6 µM | > 100 µM | 31.6 µM | > 100 µM | 43.7 µM | > 100 µM | 45.2 µM | > 100 µM | 59.8 µM | > 100 µM | > 87.8 µM | > 100 µM | > 69.9 µM | > 100 µM | > 54.1 µM | > 100 µM
